Measured values: US5525626A (priority 1989, dated 1996)

Columns and labels:
Assay in all cases: 3H-thymidine assay
Format in all cases: cell-based
[1] = system: Tp 483 MG glioblastoma cells
[2] = system: Tp 410 N neuroblastoma cells; settings: Homo sapiens, Neuroblastoma cell
At T 20 = settings: Mus musculus
Method: (§1) The cell lines were cultivated as indicated in Example 1.
(§2) The antiproliferative effect of the 1,2-benzopyrone derivatives according to the invention on the tumor cell lines in each case was shown with the help of the ^3 H-thymidine insertion and with reference to growth curves.
(§3) In a 24-well-plate, in each case 10^4 cells of the line to be investigated were inoculated per well. Approximately 48 hours later the cells were half-confluent; the medium was then changed and replaced by a medium containing the active substance in question (cf Table 3). After a further 48 hours 0.25 μCi ^3 H-thymidine (Ammersham) was added to each well and the cells were incubated for a further 24 hours. Subsequently the cultures were washed twice with ice-cold PBS and the high-molecular-weight ^3 H-radioactivity was precipitated with 5% trichloroacetic acid for one hour at 4° C. After the washing of the cells in PBS the ^3 H-radioactivity was solubilized with 0.3M NaOH and measured in the counter. The growth-inhibition was determined by comparing the thymidine insertion of the cells treated with active substance with untreated cells.
(§4) The active substance concentration in each case was so chosen that ^3 H-thymidine insertion was 50% inhibited. The active substance concentrations used under this aspect for the active substances and cell lines in each case are given in table 4 below in μM/ml, […]

CAKI-1 cells = settings: Homo sapiens
Method: as §1, §2, §3, §4

K-562 leukemic cells = settings: Homo sapiens
Method: as §1, §2, §3, §4

[3] = system: MCF-7 breast cancer cells; settings: Homo sapiens
Method: as §1, §2, §3, §4

CAKI-2 cells = settings: Homo sapiens
Method: as §1, §2
as §3, with “After a further 48 hours 0.25 μCi ^3 H-thymidine (Ammersham) was added to each well and the cells were incubated for a further 24 hours.” left out
as §4

HCV cells = system: HCV cells
[4] = system: GV-1 prostate carcinoma cells
[5] = read-out: 3H-thymidine insertion (%) of control
[6] = read-out: active substance concentration at which 3H-thymidine insertion was 50% inhibited
[7] = AtT20, read-out: 3H-thymidine tracer (%) of control
[8] = CAKI-1, read-out: 3H-thymidine tracer (%) of control
[9] = K562, read-out: 3H-thymidine tracer (%) of control
[10] = MCF7, read-out: 3H-thymidine tracer (%) of control
[11] = CAKI-2, read-out: 3H-thymidine tracer (%) of control
[12] = read-out: 3H-thymidine tracer (%) of control

With O=c1ccc2cc(O[C@@H]3O[C@H](CO)[C@@H](O)[C@H](O)[C@H]3O)c(O)cc2o1 [Esculin, 6-beta-D-glucopyranosyloxy-7-hydroxy-1,2-benzopyrone] the activity at 1 µM [1, 5] was 99%, the activity at 2 µM [1, 5] was 97% and the activity at 4 µM [1, 5] was 89%. For the same molecule, the activity at 8 µM [1, 5] was 83%, the activity at 16 µM [1, 5] was 74% and the activity at 25 µM [1, 5] was 66%. It also gave an activity at 50 µM [1, 5] of 54%, an activity at 100 µM [1, 5] of 51% and an activity at 250 µM [1, 5] of 48%. The activity at 500 µM [1, 5] was 45%, the IC50 [1, 6] was 100 µM and the activity at 1 µM [2, 5] was 100%. For the same molecule, the activity at 2 µM [2, 5] was 96%, the activity at 4 µM [2, 5] was 85% and the activity at 8 µM [2, 5] was 76%. It also gave an activity at 16 µM [2, 5] of 69%, an activity at 25 µM [2, 5] of 62% and an activity at 50 µM [2, 5] of 54%. The activity at 100 µM [2, 5] was 43%, the activity at 250 µM [2, 5] was 38% and the activity at 500 µM [2, 5] was 30%. The IC50 [2, 6] was 75 µM, the activity at 1 µM (At T 20; [7]) was 100% and the activity at 2 µM (At T 20; [7]) was 94%. For the same molecule, the activity at 4 µM (At T 20; [7]) was 89%, the activity at 8 µM (At T 20; [7]) was 83% and the activity at 16 µM (At T 20; [7]) was 72%. The activity at 25 µM (At T 20; [7]) was 69%, the activity at 50 µM (At T 20; [7]) was 64% and the activity at 100 µM (At T 20; [7]) was 58%. The activity at 250 µM (At T 20; [7]) was 49%, the activity at 500 µM (At T 20; [7]) was 44% and the IC50 (At T 20; AtT20, read-out: active substance concentration at which 3H-thymidine insertion was 50% inhibited) was 250 µM. For the same molecule, the activity at 1 µM (CAKI-1 cells; [8]) was 100%, the activity at 2 µM (CAKI-1 cells; [8]) was 94% and the activity at 4 µM (CAKI-1 cells; [8]) was 92%. It also gave an activity at 8 µM (CAKI-1 cells; [8]) of 83%, an activity at 16 µM (CAKI-1 cells; [8]) of 78% and an activity at 25 µM (CAKI-1 cells; [8]) of 74%. The activity at 50 µM (CAKI-1 cells; [8]) was 65%, the activity at 100 µM (CAKI-1 cells; [8]) was 60% and the activity at 150 µM (CAKI-1 cells; [8]) was 53%. It also gave an activity at 500 µM (CAKI-1 cells; [8]) of 47%, an IC50 (CAKI-1 cells; CAKI-1, read-out: active substance concentration at which 3H-thymidine insertion was 50% inhibited) of 375 µM and an activity at 1 µM (K-562 leukemic cells; [9]) of 100%. It also gave an activity at 2 µM (K-562 leukemic cells; [9]) of 100%, an activity at 4 µM (K-562 leukemic cells; [9]) of 96% and an activity at 8 µM (K-562 leukemic cells; [9]) of 88%. For the same molecule, the activity at 16 µM (K-562 leukemic cells; [9]) was 81%, the activity at 25 µM (K-562 leukemic cells; [9]) was 72% and the activity at 50 µM (K-562 leukemic cells; [9]) was 70%. For the same molecule, the activity at 100 µM (K-562 leukemic cells; [9]) was 58%, the activity at 250 µM (K-562 leukemic cells; [9]) was 51% and the activity at 500 µM (K-562 leukemic cells; [9]) was 40%. It also gave an IC50 (K-562 leukemic cells; K562, read-out: active substance concentration at which 3H-thymidine insertion was 50% inhibited) of 250 µM, an activity at 1 µM [3, 10] of 99% and an activity at 2 µM [3, 10] of 91%. For the same molecule, the activity at 4 µM [3, 10] was 88%, the activity at 8 µM [3, 10] was 80% and the activity at 16 µM [3, 10] was 71%. It also gave an activity at 25 µM [3, 10] of 69%, an activity at 50 µM [3, 10] of 62% and an activity at 100 µM [3, 10] of 51%. For the same molecule, the activity at 250 µM [3, 10] was 49%, the activity at 500 µM [3, 10] was 42% and the IC50 ([3]; MCF7, read-out: active substance concentration at which 3H-thymidine insertion was 50% inhibited) was > 100 µM. It also gave an activity at 1 µM (CAKI-2 cells; [11]) of 99%, an activity at 2 µM (CAKI-2 cells; [11]) of 96% and an activity at 4 µM (CAKI-2 cells; [11]) of 90%. It also gave an activity at 8 µM (CAKI-2 cells; [11]) of 84%, an activity at 16 µM (CAKI-2 cells; [11]) of 73% and an activity at 25 µM (CAKI-2 cells; [11]) of 72%. The activity at 50 µM (CAKI-2 cells; [11]) was 66%, the activity at 100 µM (CAKI-2 cells; [11]) was 50% and the activity at 150 µM (CAKI-2 cells; [11]) was 56%. The activity at 500 µM (CAKI-2 cells; [11]) was 52%, the IC50 (CAKI-2 cells; CAKI-2, read-out: active substance concentration at which 3H-thymidine insertion was 50% inhibited) was > 500 µM and the activity at 1 µM (HCV cells; [12]) was 100%. For the same molecule, the activity at 2 µM (HCV cells; [12]) was 98%, the activity at 4 µM (HCV cells; [12]) was 95% and the activity at 8 µM (HCV cells; [12]) was 89%. It also gave an activity at 16 µM (HCV cells; [12]) of 86%, an activity at 25 µM (HCV cells; [12]) of 83% and an activity at 50 µM (HCV cells; [12]) of 79%. The activity at 250 µM (HCV cells; [12]) was 76%, the activity at 500 µM (HCV cells; [12]) was 75% and the IC50 (HCV cells; [6]) was > 500 µM. The activity at 1 µM [4, 12] was 97%, the activity at 2 µM [4, 12] was 95% and the activity at 4 µM [4, 12] was 85%. For the same molecule, the activity at 8 µM [4, 12] was 84%, the activity at 16 µM [4, 12] was 79% and the activity at 25 µM [4, 12] was 76%. For the same molecule, the activity at 50 µM [4, 12] was 68%, the activity at 100 µM [4, 12] was 60% and the activity at 250 µM [4, 12] was 51%. For the same molecule, the activity at 500 µM [4, 12] was 43% and the IC50 [4, 6] was 250 µM.
